Experiments:
[1] = Pharmacokinetic distribution experiment (PET, SUV of liver, kidney, spleen); type: in vivo, normal rats; conditions: FIG. 2; for radioactivity accumulation in tissues (the liver, kidney, and spleen) surrounding the adrenal glands: PET SUV at 60 minutes and 180 minutes after the administration; for high radioactivity accumulation that would be an obstacle in the adrenal gland imaging: liver, kidney, spleen, 60 and 180 minutes after the administration
Procedure: The compounds according to the present invention (Compounds [^18F]101, [^18F]102, and [^18F]103) were administered to three normal rats without anesthesia. Imaging data for 15 minutes under isoflurane anesthesia were collected at 60 minutes and 180 minutes after the administration. The imaging data were subjected to image reconstruction by a positron emission tomography (PET) device (instrument: eXplore VISTA, manufactured by GE Healthcare Japan Corporation), and then a volume of interest (VOI) was set in each of the liver, kidney, and spleen, and a standardized uptake value (SUV) of each tissue was determined as in formula (5).

[2] = test system: normal region in an adjacent part to the lesion region (human adrenal section); assay: In vitro autoradiography using human adrenal tumor: binding ability to normal region; conditions: relative to [123I]IMTO = 1, human plasma, 37° C., 10 minutes
Procedure: (§1) By using a frozen human adrenal tissue specimen containing a lesion region having an aldosterone-producing tumor site, and a normal region in an adjacent part to the lesion region, in vitro autoradiography was performed. Specifically, a slide glass on which a section prepared by embedding the specimen in an embedding medium for preparing a frozen tissue section (Tissue-Tek O.C.T. Compound, manufactured by Sakura Finetek Japan Co., Ltd.), and thinly cutting the embedded specimen of human adrenal tissue to have a thickness of 7 μm had been pasted (stored at −80° C., hereinafter, referred to as human adrenal section) was used for experiment.
(§2) A solution of each of Compounds [^18F]100, [^18F]101, [^18F]102, and […], which had been obtained in Reference Example 2, Example 2, 4, or 6, and Compound [^123I]IMTO (reference compound) was dispensed into a vial, and the amount of radioactivity was measured by a radioisotope dose calibrator (CRC-15R, manufactured by Capintec, Inc.) The radioactive concentration of a solution that had been prepared by adding each solution obtained above to human plasma (hereinafter referred to as reaction mixture) was measured by using an autowell gamma system (ARC-7001, manufactured by Hitachi, Ltd.).
(§3) For preincubation, a human adrenal section was immersed in phosphate-buffered saline (PBS) at 37° C. for 5 minutes, and then immersed in human plasma at 37° C. for 5 minutes. Next, as a reaction step, the human adrenal section was immersed in the reaction mixture at 37° C. for 10 minutes. After that, the human adrenal section was washed with human plasma five times at 37° C. for 2 minutes, and then air-dried. Further, a piece of filter paper, which had been cut out into a circular shape and had been pasted on a slide glass, was impregnated with a known amount of the reaction mixture, and then air dried, and the resultant piece was used as a standard radiation source.
(§4) The air-dried human adrenal section and the air-dried standard radiation source were exposed to an imaging plate (BAS-SR2040, manufactured by Fujifilm Corporation) (IP sheet), and autoradiograms were obtained by a fluoro image analyzer (Typhoo FLA 7000 IP, manufactured by GE Healthcare Japan Corporation). A region of interest (ROI) was set in each of the lesion region and normal region obtained on the autoradiograms, and the radiation count was determined. The ROI was also set for the standard radiation source, and the radiation count was determined.
(§5) For the autoradiograms obtained for the human adrenal section, the radiation count (correction value) of each region (lesion region or normal region) was determined as in formula (1) as a correction value to the standard radiation source.
(§6) The binding ability of the compound according to the present invention (each of Compounds [^18F]101, [^18F]102, and [^18F]103) to each region (lesion region or normal region) was determined as in formulas (2) and (3) as the relative value in a case where the radiation count (correction value) in each region of ^[123I]IMTO (reference compound) was set to 1. Further, the lesion/normal ratio was determined as in formula (4).

[3] = test system: lesion region having an aldosterone-producing tumor site (human adrenal section); assay: In vitro autoradiography using human adrenal tumor: binding ability to lesion region; conditions: for B2, binding ability to a lesion region, ratio to reference compound: relative to [123I]IMTO = 1, human plasma, 37° C., 10 minutes; for concentration shown at the lesion sites on autoradiograms (FIG. 1): Samples 1 to 6, compared with Compound [18F]100
Procedure: as §1, §2, §3, §4, §5, §6

Compound | radioactivity accumulation in tissues (the liver, kidney, and spleen) surrounding the adrenal glands [1] | high radioactivity accumulation that would be an obstacle in the adrenal gland imaging [1] | B1, binding ability to a normal region, ratio to reference compound ([2]; Sample 1) | B1, binding ability to a normal region, ratio to reference compound ([2]; Sample 2) | B1, binding ability to a normal region, ratio to reference compound ([2]; Sample 3) | B1, binding ability to a normal region, ratio to reference compound ([2]; Sample 4) | B1, binding ability to a normal region, ratio to reference compound ([2]; Sample 5) | B1, binding ability to a normal region, ratio to reference compound ([2]; Sample 6) | B2/B1, lesion/normal ratio ([3]; Sample 1) | B2, binding ability to a lesion region, ratio to reference compound ([3]; Sample 1) | B2/B1, lesion/normal ratio ([3]; Sample 2) | B2, binding ability to a lesion region, ratio to reference compound ([3]; Sample 2) | B2/B1, lesion/normal ratio ([3]; Sample 3) | B2, binding ability to a lesion region, ratio to reference compound ([3]; Sample 3) | B2/B1, lesion/normal ratio ([3]; Sample 4) | B2, binding ability to a lesion region, ratio to reference compound ([3]; Sample 4) | B2/B1, lesion/normal ratio ([3]; Sample 5) | B2, binding ability to a lesion region, ratio to reference compound ([3]; Sample 5) | B2/B1, lesion/normal ratio ([3]; Sample 6) | B2, binding ability to a lesion region, ratio to reference compound ([3]; Sample 6) | other results
Fc1ccc2nc(-c3cncc(Cn4ccnc4)c3)n(CC[18F])c2c1 [Compound [^18F]101, 6-fluoro-1-(2-[^18F]fluoroethyl)-2-[5-(imidazol-1-ylmethyl)pyridin-3-yl]benzimidazole] | decreased over time | not observed | 0.00 | 0.01 | 0.03 | 0.01 | 0.01 | 0.01 | 14.44 | 0.19 | 19.66 | 0.24 | 8.44 | 0.32 | 8.28 | 0.21 | 14.94 | 0.13 | 37.80 | 0.45 | concentration shown at the lesion sites on autoradiograms (FIG. 1) [3]: higher concentration than that of Compound [^18F]100
N#Cc1cc2c(cc1F)nc(-c1cncc(Cn3ccnc3)c1)n2CC[18F] [Compound [^18F]103, 2-[5-(1H-imidazol-1-ylmethyl)pyridin-3-yl]-5-fluoro-1-(2-[^18F]fluoroethyl)-1H-benzo[d]imidazole-6-carbonitrile] | decreased over time | not observed | 0.02 | 0.04 | 0.20 | 0.08 | 0.04 | 0.07 | 4.57 | 0.23 | 12.05 | 0.46 | 2.68 | 0.79 | 2.03 | 0.33 | 5.17 | 0.29 | 15.42 | 1.09 | concentration shown at the lesion sites on autoradiograms (FIG. 1) [3]: higher concentration than that of Compound [^18F]100
Fc1cc2nc(-c3cncc(Cn4ccnc4)c3)n(CC[18F])c2cc1F [Compound [^18F]102, 5,6-difluoro-1-(2-[^18F]fluoroethyl)-2-[5-(imidazol-1-ylmethyl)pyridin-3-yl]benzimidazole] | decreased over time | not observed | 0.01 | 0.03 | 0.05 | 0.05 | 0.01 | 0.03 | 6.78 | 0.19 | 8.69 | 0.31 | 8.20 | 0.65 | 4.32 | 0.41 | 9.21 | 0.14 | 23.93 | 0.63 | concentration shown at the lesion sites on autoradiograms (FIG. 1) [3]: higher concentration than that of Compound [^18F]100

Reference: US11266753B2, “2-[5-(imidazol-1-ylmethyl)pyridin-3-yl]benzimtdazole derivative compound, and medicament including same” (Nihon Medi-Physics Co., Ltd., priority 2017, dated 2022)
